Measured values taken from US10040781B2, “Tank-binding kinase inhibitor compounds” (Gilead Sciences, Inc., priority 2014, dated 2018).

Legend:
TBK1 = TBK1 (Homo sapiens (Human), UniProt Q9UHD2); experiment: TBK1 TR-FRET enzymatic assay;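 further: phosphorylation of a biotinylated Ser/Thr peptide by purified full-length recombinant TBK1, read by TR-FRET after 240 min at 25 °C, IC50 is the geometric mean of at least four runs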
hJAK2 = hJAK2 (Homo sapiens (Human), UniProt O60674); experiment: hJAK2 LANCE TR-FRET enzymatic assay; format: biochemical; settings: read-out: JAK2 IC50
Chain of hJAK2 (O60674 whole entry): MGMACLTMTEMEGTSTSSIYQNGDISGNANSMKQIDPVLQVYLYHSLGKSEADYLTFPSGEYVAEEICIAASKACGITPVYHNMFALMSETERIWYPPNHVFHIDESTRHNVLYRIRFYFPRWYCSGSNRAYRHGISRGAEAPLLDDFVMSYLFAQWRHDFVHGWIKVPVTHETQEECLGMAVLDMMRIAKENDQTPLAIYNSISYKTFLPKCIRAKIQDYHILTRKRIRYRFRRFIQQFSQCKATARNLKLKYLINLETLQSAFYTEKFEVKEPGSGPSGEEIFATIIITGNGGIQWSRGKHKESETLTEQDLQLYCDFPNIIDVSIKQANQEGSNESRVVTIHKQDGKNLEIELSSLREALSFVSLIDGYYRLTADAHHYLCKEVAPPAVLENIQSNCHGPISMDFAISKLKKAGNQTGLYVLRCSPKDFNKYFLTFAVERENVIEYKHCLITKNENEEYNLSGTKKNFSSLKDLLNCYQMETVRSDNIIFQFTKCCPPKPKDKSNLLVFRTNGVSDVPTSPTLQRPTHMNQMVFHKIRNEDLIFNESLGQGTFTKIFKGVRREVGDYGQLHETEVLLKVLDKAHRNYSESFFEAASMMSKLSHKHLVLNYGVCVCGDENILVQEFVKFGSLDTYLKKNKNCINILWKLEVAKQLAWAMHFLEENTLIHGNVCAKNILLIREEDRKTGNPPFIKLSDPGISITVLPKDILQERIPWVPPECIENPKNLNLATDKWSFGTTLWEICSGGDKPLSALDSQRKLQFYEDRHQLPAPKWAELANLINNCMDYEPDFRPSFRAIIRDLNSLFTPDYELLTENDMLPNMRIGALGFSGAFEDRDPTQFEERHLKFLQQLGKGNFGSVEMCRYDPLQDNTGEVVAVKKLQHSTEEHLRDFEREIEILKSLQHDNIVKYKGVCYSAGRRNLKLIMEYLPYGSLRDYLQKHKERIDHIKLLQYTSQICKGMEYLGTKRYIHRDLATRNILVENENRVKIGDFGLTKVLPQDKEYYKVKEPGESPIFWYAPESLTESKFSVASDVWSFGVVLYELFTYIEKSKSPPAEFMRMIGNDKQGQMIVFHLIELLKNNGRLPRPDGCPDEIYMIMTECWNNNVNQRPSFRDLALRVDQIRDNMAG

IKKε = IKKε (Homo sapiens (Human), UniProt Q14164); experiment: IKKε TR-FRET enzymatic assay; format: biochemical; settings: TR-FRET, 2×Km ATP; geometric mean of minimum four determinations; read-out: IKKe IC50
Chain of IKKε (Q14164 whole entry): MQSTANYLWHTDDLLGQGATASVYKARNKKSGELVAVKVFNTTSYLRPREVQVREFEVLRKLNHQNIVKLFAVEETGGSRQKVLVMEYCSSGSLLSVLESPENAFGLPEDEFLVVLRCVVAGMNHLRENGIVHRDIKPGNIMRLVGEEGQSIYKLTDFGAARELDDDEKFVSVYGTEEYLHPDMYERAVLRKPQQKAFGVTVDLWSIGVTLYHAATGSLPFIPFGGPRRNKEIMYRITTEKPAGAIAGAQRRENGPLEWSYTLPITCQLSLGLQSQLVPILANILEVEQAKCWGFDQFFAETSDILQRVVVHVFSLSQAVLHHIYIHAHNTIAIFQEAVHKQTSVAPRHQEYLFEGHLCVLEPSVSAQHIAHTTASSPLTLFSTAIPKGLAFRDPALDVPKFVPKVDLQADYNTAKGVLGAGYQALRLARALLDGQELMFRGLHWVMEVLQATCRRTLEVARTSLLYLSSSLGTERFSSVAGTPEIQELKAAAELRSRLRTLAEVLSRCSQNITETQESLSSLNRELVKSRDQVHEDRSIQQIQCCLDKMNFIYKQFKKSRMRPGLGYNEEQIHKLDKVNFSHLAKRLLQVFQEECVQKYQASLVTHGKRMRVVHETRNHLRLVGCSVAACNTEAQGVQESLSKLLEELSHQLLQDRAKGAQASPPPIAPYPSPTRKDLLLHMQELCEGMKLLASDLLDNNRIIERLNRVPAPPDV

Chain of TBK1 (Q9UHD2 whole entry): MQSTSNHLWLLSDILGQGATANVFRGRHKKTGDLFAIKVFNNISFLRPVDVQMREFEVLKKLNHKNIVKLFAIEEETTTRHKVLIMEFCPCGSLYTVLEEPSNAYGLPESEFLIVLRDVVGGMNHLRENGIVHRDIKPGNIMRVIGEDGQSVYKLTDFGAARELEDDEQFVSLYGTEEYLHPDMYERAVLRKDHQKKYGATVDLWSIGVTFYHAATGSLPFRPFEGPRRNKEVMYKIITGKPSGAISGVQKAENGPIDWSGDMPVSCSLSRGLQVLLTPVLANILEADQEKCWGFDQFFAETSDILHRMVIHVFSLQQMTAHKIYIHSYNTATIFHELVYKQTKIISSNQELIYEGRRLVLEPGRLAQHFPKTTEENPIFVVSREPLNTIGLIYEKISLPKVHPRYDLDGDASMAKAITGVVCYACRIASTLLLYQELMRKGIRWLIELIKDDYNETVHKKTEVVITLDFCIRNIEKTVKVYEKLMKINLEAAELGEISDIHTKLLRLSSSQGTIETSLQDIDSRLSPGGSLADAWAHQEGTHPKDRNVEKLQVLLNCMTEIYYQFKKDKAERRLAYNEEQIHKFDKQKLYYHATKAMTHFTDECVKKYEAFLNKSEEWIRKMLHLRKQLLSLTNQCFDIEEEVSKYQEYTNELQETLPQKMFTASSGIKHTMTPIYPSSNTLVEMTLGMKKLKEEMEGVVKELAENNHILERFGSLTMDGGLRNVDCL

| SMILES | IC50 (TBK1) | IC50 (hJAK2) | IC50 (IKKε) |
| --- | --- | --- | --- |
| CC(=O)Nc1ccc(Nc2ncnc(-c3ccc(O[C@H]4CCN(C(=O)[C@@H]5CCC(=O)N5)C[C@H]4F)c(C#N)c3)n2)cn1 [Example 537, N-(5-((4-(3-cyano-4-(((3R,4S)-3-fluoro-1-((S)-5-oxopyrrolidine-2-carbonyl)piperidin-4-yl)oxy)phenyl)-1,3,5-triazin-2-yl)amino)pyridin-2-yl)acetamide] | 8 nM | ≥ 1000 nM | 18 nM |
| CCOc1ccc(Nc2ncnc(-c3ccc(O[C@H]4CCN(C(=O)[C@@H]5CCC(=O)N5)C[C@H]4F)c(C#N)c3)n2)cn1 [Example 538, 5-(4-((6-ethoxypyridin-3-yl)amino)-1,3,5-triazin-2-yl)-2-(((3R,4S)-3-fluoro-1-((S)-5-oxopyrrolidine-2-carbonyl)piperidin-4-yl)oxy)benzonitrile] | 7 nM | ≥ 1000 nM | 14 nM |
| CC(=O)Nc1ccc(Nc2ncnc(-c3ccc(O[C@H]4CCN(C(=O)[C@H](C)O)C[C@H]4F)c(C#N)c3)n2)cn1 [Example 540, N-(5-((4-(3-cyano-4-(((3R,4S)-3-fluoro-1-((S)-2-hydroxypropanoyl)piperidin-4-yl)oxy)phenyl)-1,3,5-triazin-2-yl)amino)pyridin-2-yl)acetamide] | 20 nM | ≥ 1000 nM | 21 nM |
| CCOc1ccc(Nc2ncnc(-c3ccc(O[C@H]4CCN(C(=O)[C@H](C)O)C[C@H]4F)c(C#N)c3)n2)cn1 [Example 541, 5-(4-((6-ethoxypyridin-3-yl)amino)-1,3,5-triazin-2-yl)-2-(((3R,4S)-3-fluoro-1-((S)-2-hydroxypropanoyl)piperidin-4-yl)oxy)benzonitrile] | 15 nM | ≥ 1000 nM | 17 nM |
| CO[C@@H](C)C(=O)N1CC[C@H](Oc2ccc(-c3ncnc(Nc4ccc(N5CCN(C6COC6)CC5)cc4)n3)cc2C#N)[C@H](F)C1 [Example 547, 2-(((3R,4S)-3-fluoro-1-((S)-2-methoxypropanoyl)piperidin-4-yl)oxy)-5-(4-((4-(4-(oxetan-3-yl)piperazin-1-yl)phenyl)amino)-1,3,5-triazin-2-yl)benzonitrile] | 11 nM | ≥ 1000 nM | 36 nM |
| N#Cc1cc(-c2ncnc(Nc3ccc(N4CCN(C5COC5)CC4)cc3)n2)ccc1O[C@H]1CCN(C(=O)[C@@H]2CNC(=O)C2)C[C@H]1F [Example 548, 2-(((3R,4S)-3-fluoro-1-((S)-5-oxopyrrolidine-3-carbonyl)piperidin-4-yl)oxy)-5-(4-((4-(4-(oxetan-3-yl)piperazin-1-yl)phenyl)amino)-1,3,5-triazin-2-yl)benzonitrile] | 21 nM | 353 nM | 96 nM |
| N#Cc1cc(-c2ncnc(Nc3ccc(N4CCN(C5COC5)CC4)cc3)n2)ccc1O[C@H]1CCN(C(=O)C2CC(O)C2)C[C@H]1F (stereo partly drawn) [Example 550, 2-(((3R,4S)-3-fluoro-1-(3-hydroxycyclobutanecarbonyl)piperidin-4-yl)oxy)-5-(4-((4-(4-(oxetan-3-yl)piperazin-1-yl)phenyl)amino)-1,3,5-triazin-2-yl)benzonitrile] | 11 nM | 750 nM | 36 nM |
| N#Cc1cc(-c2ncnc(Nc3ccc(N4CCN(C5COC5)CC4)cc3)n2)ccc1O[C@H]1CCN(C(=O)C2CCNC2=O)C[C@H]1F (stereo partly drawn) [Example 551, 2-(((3R,4S)-3-fluoro-1-(2-oxopyrrolidine-3-carbonyl)piperidin-4-yl)oxy)-5-(4-((4-(4-(oxetan-3-yl)piperazin-1-yl)phenyl)amino)-1,3,5-triazin-2-yl)benzonitrile] | 16 nM | 799 nM | 92 nM |
| N#Cc1cc(-c2ncnc(Nc3ccc(N4CCN(C5COC5)CC4)cc3)n2)ccc1O[C@H]1CCN(C(=O)[C@H]2CNC(=O)C2)C[C@H]1F [Example 552, 2-(((3R,4S)-3-fluoro-1-((R)-5-oxopyrrolidine-3-carbonyl)piperidin-4-yl)oxy)-5-(4-((4-(4-(oxetan-3-yl)piperazin-1-yl)phenyl)amino)-1,3,5-triazin-2-yl)benzonitrile] | 28 nM | 562 nM | 174 nM |
| CC(C)(O)CC(=O)N1CC[C@H](Oc2ccc(-c3ncnc(Nc4ccc(N5CCN(C6COC6)CC5)cc4)n3)cc2C#N)[C@H](F)C1 [Example 553, 2-(((3R,4S)-3-fluoro-1-(3-hydroxy-3-methylbutanoyl)piperidin-4-yl)oxy)-5-(4-((4-(4-(oxetan-3-yl)piperazin-1-yl)phenyl)amino)-1,3,5-triazin-2-yl)benzonitrile] | 38 nM | ≥ 1000 nM | 51 nM |
| COCC(O)C(=O)N1CC[C@H](Oc2ccc(-c3ncnc(Nc4ccc(N5CCN(C6COC6)CC5)cc4)n3)cc2C#N)[C@H](F)C1 (stereo partly drawn) [Example 557, 2-(((3R,4S)-3-fluoro-1-(2-hydroxy-3-methoxypropanoyl)piperidin-4-yl)oxy)-5-(4-((4-(4-(oxetan-3-yl)piperazin-1-yl)phenyl)amino)-1,3,5-triazin-2-yl)benzonitrile] | 6 nM | 917 nM | 4 nM |

Further molecules by falling IC50 (TBK1), results first:

| IC50 (TBK1) | IC50 (hJAK2) | IC50 (IKKε) | SMILES |
| --- | --- | --- | --- |
| 6 nM | 363 nM | 4 nM | C[C@@H]1CN(c2ccc(Nc3ncnc(-c4ccc(O[C@H]5CCN(C(=O)[C@@H]6CCC(=O)N6)C[C@H]5F)c(C#N)c4)n3)cc2)CCN1C1COC1 [Example 542, 2-(((3R,4S)-3-fluoro-1-((S)-5-oxopyrrolidine-2-carbonyl)piperidin-4-yl)oxy)-5-(4-((4-((R)-3-methyl-4-(oxetan-3-yl)piperazin-1-yl)phenyl)amino)-1,3,5-triazin-2-yl)benzonitrile] |
| 5 nM | ≥ 1000 nM | 4 nM | C[C@H](O)C(=O)N1CC[C@H](Oc2ccc(-c3ncnc(Nc4ccc(-n5ccnc5)cc4)n3)cc2C#N)[C@H](F)C1 [Example 554, 5-(4-((4-(1H-imidazol-1-yl)phenyl)amino)-1,3,5-triazin-2-yl)-2-(((3R,4S)-3-fluoro-1-((S)-2-hydroxypropanoyl)piperidin-4-yl)oxy)benzonitrile] |
| 5 nM | 83 nM | 2 nM | N#Cc1cc(-c2ncnc(Nc3ccc(N4CCN(C5COC5)CC4)cc3)n2)ccc1O[C@H]1CCN(C(=O)c2cnc(N)[nH]2)C[C@H]1F [Example 559, 2-(((3R,4S)-1-(2-amino-1H-imidazole-5-carbonyl)-3-fluoropiperidin-4-yl)oxy)-5-(4-((4-(4-(oxetan-3-yl)piperazin-1-yl)phenyl)amino)-1,3,5-triazin-2-yl)benzonitrile] |
| 4 nM | 179 nM | 11 nM | CS(=O)(=O)CC(=O)N1CC[C@H](Oc2ccc(-c3ncnc(Nc4ccc(N5CCN(C6COC6)CC5)cc4)n3)cc2C#N)[C@H](F)C1 [Example 549, 2-(((3R,4S)-3-fluoro-1-(2-(methylsulfonyl)acetyl)piperidin-4-yl)oxy)-5-(4-((4-(4-(oxetan-3-yl)piperazin-1-yl)phenyl)amino)-1,3,5-triazin-2-yl)benzonitrile] |
| 4 nM | 732 nM | 1 nM | N#Cc1cc(-c2ncnc(Nc3ccc(N4CCOCC4)cc3)n2)ccc1O[C@H]1CCN(C(=O)[C@@H](O)CO)C[C@H]1F [Example 555, 2-(((3R,4S)-1-((S)-2,3-dihydroxypropanoyl)-3-fluoropiperidin-4-yl)oxy)-5-(4-((4-morpholinophenyl)amino)-1,3,5-triazin-2-yl)benzonitrile] |
| 3 nM | 519 nM | 2 nM | C[C@H](O)C(=O)N1CC[C@H](Oc2ccc(-c3ncnc(Nc4cccc(CN5CCOCC5)c4)n3)cc2C#N)[C@H](F)C1 [Example 539, 2-(((3R,4S)-3-fluoro-1-((S)-2-hydroxypropanoyl)piperidin-4-yl)oxy)-5-(4-((3-(morpholinomethyl)phenyl)amino)-1,3,5-triazin-2-yl)benzonitrile] |
| 3 nM | 659 nM | 1 nM | C[C@H](O)C(=O)N1CC[C@H](Oc2ccc(-c3ncnc(Nc4ccc5c(c4)CNC5)n3)cc2C#N)[C@H](F)C1 [Example 545, 2-(((3R,4S)-3-fluoro-1-((S)-2-hydroxypropanoyl)piperidin-4-yl)oxy)-5-(4-(isoindolin-5-ylamino)-1,3,5-triazin-2-yl)benzonitrile] |
| 3 nM | ≥ 1000 nM | 5 nM | N#Cc1cc(-c2ncnc(Nc3ccc(N4CCOCC4)cc3F)n2)ccc1O[C@H]1CCN(C(=O)[C@@H](O)CO)C[C@H]1F [Example 556, 2-(((3R,4S)-1-((S)-2,3-dihydroxypropanoyl)-3-fluoropiperidin-4-yl)oxy)-5-(4-((2-fluoro-4-morpholinophenyl)amino)-1,3,5-triazin-2-yl)benzonitrile] |
| 2 nM | 101 nM | 1 nM | Cc1cc(Nc2ncnc(-c3ccc(O[C@H]4CCN(C(=O)[C@@H]5CCC(=O)N5)C[C@H]4F)c(C#N)c3)n2)ccc1N1CCN(C2COC2)CC1 [Example 536, 2-(((3R,4S)-3-fluoro-1-((S)-5-oxopyrrolidine-2-carbonyl)piperidin-4-yl)oxy)-5-(4-((3-methyl-4-(4-(oxetan-3-yl)piperazin-1-yl)phenyl)amino)-1,3,5-triazin-2-yl)benzonitrile] |
| 2 nM | 44 nM | 1 nM | COc1cc(Nc2ncnc(-c3ccc(O[C@H]4CCN(C(=O)[C@@H]5CCC(=O)N5)C[C@H]4F)c(C#N)c3)n2)ccc1N1CCN(C2COC2)CC1 [Example 544, 2-(((3R,4S)-3-fluoro-1-((S)-5-oxopyrrolidine-2-carbonyl)piperidin-4-yl)oxy)-5-(4-((3-methoxy-4-(4-(oxetan-3-yl)piperazin-1-yl)phenyl)amino)-1,3,5-triazin-2-yl)benzonitrile] |
| 2 nM | 492 nM | 2 nM | COCC(=O)N1CC[C@H](Oc2ccc(-c3ncnc(Nc4ccc(N5CCN(C6COC6)CC5)cc4)n3)cc2C#N)[C@H](F)C1 [Example 546, 2-(((3R,4S)-3-fluoro-1-(2-methoxyacetyl)piperidin-4-yl)oxy)-5-(4-((4-(4-(oxetan-3-yl)piperazin-1-yl)phenyl)amino)-1,3,5-triazin-2-yl)benzonitrile] |
